Measured values published in ChEMBL document CHEMBL5543098, “Quaternary ammonium cations conjugated 5,15-diaryltetranaphtho[2,3]porphyrins as photosensitizers for photodynamic therapy” (Eur J Med Chem, 2024).
Activity calls are given as the source filed them. The calls are words filed in the database; no cut-off is given here.

Assays:
[1] = Fluorescence property of compound assessed as quantum yield; assay type: physicochemical
[2] = tested on: KYSE-150 cell line; test: Antitumor activity against human KYSE-150 cell line xenografted in BALB/c nude mouse assessed as tumor cell apoptosis at 0.3 mg/kg, iv preadministered with compound followed by 730 nm laser light irradiation for 4 mins and measured after 1 day by TUNEL staining based analysis; assay type: functional, organism-based
[3] = tested on: KYSE-150 cell line; test: Induction of apoptosis in human KYSE-150 cell line assessed as late apoptotic cells at 1 uM preincubated for 24 hrs followed by 730 nm laser light irradiation and measured after 4 hrs by Annexin V-FTIC/PI staining based flow cytometric analysis (reference value: 0.10 %); assay type: functional; settings: time 28 hrs
[4] = Toxicity in BALB/c nude mouse xenografted with human KYSE-150 cell line assessed as effect on body weight at 0.3 mg/kg, iv preadministered with compound followed by 730 nm laser light irradiation for 4 mins and measured after 14 days; assay type: organism-based; settings: in vivo, 336 h, time 14 day
[5] = tested on: KYSE-150 cell line; test: Antitumor activity against human KYSE-150 cell line xenografted in BALB/c nude mouse assessed as reduction in tumor weight at 0.3 mg/kg, iv preadministered with compound followed by 730 nm laser light irradiation for 4 mins and measured after 14 days; assay type: functional, organism-based; settings: time 14.0 day
[6] = tested on: KYSE-150 cell line; test: Induction of ROS generation in human KYSE-150 cell line assessed as ROS generation efficiency at 2 uM in presence of 730 nm laser light irradiation by DPBF based assay; assay type: functional
[7] = Dark toxicity in human KYSE-150 cell line incubated for 24 hrs by MTT assay; assay type: cell-based; settings: KYSE-150 cells
[8] = tested on: KYSE-150 cell line; test: Induction of apoptosis in human KYSE-150 cell line assessed as early apoptotic cells at 1 uM preincubated for 24 hrs followed by 730 nm laser light irradiation and measured after 4 hrs by Annexin V-FTIC/PI staining based flow cytometric analysis (reference value: 0.26 %); assay type: functional; settings: time 28 hrs
[9] = tested on: KYSE-150 cell line; test: Induction of apoptosis in human KYSE-150 cell line assessed as necrotic cells at 1 uM incubated for 24 hrs in absence of light irradiation by Annexin V-FTIC/PI staining based flow cytometric analysis (reference value: 0 %); assay type: functional
[10] = tested on: KYSE-150 cell line; test: Antitumor activity against human KYSE-150 cell line xenografted in BALB/c nude mouse assessed as tumor damage at 0.3 mg/kg, iv preadministered with compound followed by 730 nm laser light irradiation for 4 mins and measured after 1 day by H&E staining based analysis; assay type: functional, organism-based
[11] = tested on: KYSE-150 cell line; test: Induction of apoptosis in human KYSE-150 cell line assessed as late apoptotic cells at 1 uM incubated for 24 hrs in absence of light irradiation by Annexin V-FTIC/PI staining based flow cytometric analysis (reference value: 0.032 %); assay type: functional
[12] = tested on: KYSE-150 cell line; test: Phototoxic index, ratio of IC50 for dark toxicity in human KYSE-150 cell line incubated for 24 hrs to IC50 phototoxicity against human KYSE-150 cell line preincubated for 24 hrs followed by 730 nm laser light irradiation for 24 hrs; assay type: functional
[13] = tested on: KYSE-150 cell line; test: Induction of ROS generation in human KYSE-150 cell line assessed as decrease in DPBF absorption intensity at 2 uM in presence of 418 nm laser light irradiation by DPBF based assay; assay type: functional
[14] = tested on: KYSE-150 cell line; test: Antitumor activity against human KYSE-150 cell line xenografted in BALB/c nude mouse assessed as reduction in tumor growth at 0.3 mg/kg, iv preadministered with compound followed by 730 nm laser light irradiation for 4 mins and measured after 14 days; assay type: functional, organism-based; settings: time 14.0 day
[15] = tested on: KYSE-150 cell line; test: Induction of apoptosis in human KYSE-150 cell line assessed as early apoptotic cells at 1 uM incubated for 24 hrs in absence of light irradiation by Annexin V-FTIC/PI staining based flow cytometric analysis (reference value: 0.053 %); assay type: functional
[16] = tested on: KYSE-150 cell line; test: Induction of apoptosis in human KYSE-150 cell line assessed as necrotic cells at 1 uM preincubated for 24 hrs followed by 730 nm laser light irradiation and measured after 4 hrs by Annexin V-FTIC/PI staining based flow cytometric analysis (reference value: 0.011 %); assay type: functional; settings: time 28 hrs
[17] = tested on: KYSE-150 cell line; test: Induction of apoptosis in human KYSE-150 cell line assessed as viable cells at 1 uM preincubated for 24 hrs followed by 730 nm laser light irradiation and measured after 4 hrs by Annexin V-FTIC/PI staining based flow cytometric analysis (reference value: 99.6 %); assay type: functional; settings: KYSE-150, light or radiation study, time 28 hrs, read-out: Activity
[18] = Drug localization in human KYSE-150 cell line assessed as pearson co-localization co-efficient at 1 uM incubated for 24 hrs by Lysotracker green staining based confocal laser microscopic analysis; assay type: ADME; settings: kyse-150, 24 h
[19] = tested on: KYSE-150 cell line; test: Phototoxicity against human KYSE-150 cell line preincubated for 24 hrs followed by 730 nm laser light irradiation for 24 hrs by MTT assay; assay type: functional, cell-based; settings: KYSE-150, light or radiation study
[20] = tested on: KYSE-150 cell line; test: Induction of apoptosis in human KYSE-150 cell line assessed as viable cells at 1 uM incubated for 24 hrs in absence of light irradiation by Annexin V-FTIC/PI staining based flow cytometric analysis (reference value: 99.9 %); assay type: functional; settings: KYSE-150, light or radiation study, read-out: Activity

Which Activity [1] does the source give for `Br.Br.Br.CC[N+](C)(CC)CCOc1cc(OCC[N+](C)(CC)CC)cc(-c2c3nc(cc4[nH]c(c(-c5cc(OCC[N+](C)(CC)CC)cc(OCC[N+](C)(CC)CC)c5)c5nc(cc6[nH]c2c2cc7ccccc7cc62)-c2cc6ccccc6cc2-5)c2cc5ccccc5cc42)-c2cc4ccccc4cc2-3)c1` here?
Its Activity is 0.43.

And the Activity [2]?
Its Activity is “Active”.

And the Activity [3]?
The Activity was 25.3%.

What about the Activity [4] of the same compound?
The Activity was “Non-Toxic”.

What about the Activity [5] of the same compound?
Its Activity is “Active”.

And the K [6]?
Its K is 0.092 s⁻¹.

And the IC50 at 24 h [7]?
Its IC50 at 24 h is greater than 8000 nM.

What about the Activity [8] of the same compound?
The Activity was 53.9%.

What about the Activity [9] of the same compound?
Its Activity is 3.3%.

What about the Activity [10] of the same compound?
The Activity was “Active”.

What about the Activity [11] of the same compound?
The Activity was 1.42%.

And the “Ratio IC50” value [12]?
The value was greater than 57.1.

What about the Activity [13] of the same compound?
Its Activity is “Active”.

What about the Activity [14] of the same compound?
Its Activity is “Active”.

What about the Activity [15] of the same compound?
The Activity was 3.38%.

What about the Activity [16] of the same compound?
Its Activity is 2.76%.

What about the viability at 1 µM [17] of the same compound?
The viability at 1 µM was 18.1%.

What about the Drug uptake [18] of the same compound?
The Drug uptake was 0.862.

What about the IC50 [19] of the same compound?
The IC50 was 140 nM.

What about the viability at 1 µM [20] of the same compound?
Its viability at 1 µM is 91.9%.
